“Also recorded” adds a separate entry of the source.
Legend:
[1] = tested on: MP46 and OMM1.3 human uveal melanoma cells; test: Fe (ii) detection in lysosomes with RhoNox-M fluorescent probe; type: cell-based; details: AM23 30 nM or 100 nM, salinomycin 0.5 mM, 48 h, then RhoNox-M 1 h, compared to control cells
Experimental: A. MP46 and B. OMM1.3 human uveal melanoma cells were seeded at 5000 cells/well on a glass coverslip and were treated with DMSO (Ctl), AM23 (30 nM or 100 nM) or salinomycin (0.5 mM) for 48 h and then with RhoNox-M for 1 h for Fe 2+ detection. Representative confocal fluorescence microscopy images.
To assess whether AM23 triggers lysosomal iron accumulation, we evaluated whether endocytic vesicles contained Fe (ii) as previously reported. To this aim, the Fe (ii)-specific turn-on fluorescent probe RhoNox-M, which can detect the presence of Fe (ii) in lysosomes, was used. […] In response to the ensuing cytoplasmic depletion of iron, cells triggered in lysosomes the degradation of ferritin, which stores cellular iron, leading to further iron loading in this organelle.

[2] = tested on: Uveal melanoma cells (OMM1.3, MM28, MP65 and MP46); test: Spheroid (melanosphere) formation, 3D-cultures; type: cell-based, human; details: AM23 100 nM (or 1 mM); low attachment plates; pictures after 8 days
Experimental: Uveal melanoma cells (OMM1.3, MM28, MP65 and MP46) were seeded at 5000 cells/well in 6-well low attachment plates and were left untreated (0) or were treated with DMSO (Ctl) or AM23 (100 nM or 1 mM) 24 hours later. Representative pictures taken after 8 days are shown.
Uveal melanoma cells were seeded at a density of 5,000 cells per well and grown in MEF medium (R&D systems, #AR005) supplemented with 4 ng/ml FGF2 in low adherence plates. The following day, wells were supplemented with ironomycin (100 nM or 1 mM). Photographs were taken using a phase contrast microscope (EVOS XL Core Imaging System).

[3] = tested on: primary uveal melanoma cells (MP46 and MP65) or metastatic uveal melanoma cells (OMM1.3) expressing or not BAP1; test: Colony formation assay; type: cell-based, human; details: MP46, MP65, OMM1.3, whether BAP1 is expressed or not; 7 days
Text: FIG. 6: Colony formation assay of primary uveal melanoma cells (MP46 and MP65) or metastatic uveal melanoma cells (OMM1.3) expressing or not BAP1 after seeding them for 7 days upon treatment with the drugs indicated on the figure. Representative wells are shown.

[4] = tested on: ferritin; test: Western blot of ferritin expression; type: cell-based, human; details: OMM1.3 and MP46 cells; AM23 100 nM or salinomycin 0.5 mM for 48 h; immunoblot
Experimental: FIG. 5: Effect of AM23 or salinomycin on ferritin expression. OMM1.3 and MP46 human uveal melanoma cells were left untreated (UNT) or were treated with DMSO (Ctl), AM23 (100 nM) or salinomycin (0.5 mM) for 48 h. Cell lysates were analysed by immunoblot with antibodies to ferritin. Actin was used as a loading control.
Briefly, uveal melanoma cell lysates (50 μg) were separated using SDS-PAGE, transferred onto a PVDF membrane and subsequently exposed to the appropriate antibodies, anti-ferritin (#sc376594, 1/1,000) and anti-actin (sc47778, 1/1,000) from Santa Cruz Biotechnology. The proteins were visualized using the ECL system (Amersham). The western blots shown are representative of at least 3 independent experiments.

[5] = tested on: PLX-resistant metastatic cutaneous melanoma cells; test: Cell count of PLX-sensitive and resistant cutaneous melanoma cells; type: cell-based; set-up: dose or concentration left out as unconfirmed; details: increasing concentrations of AM23 or AM5 in presence or absence of PLX; cells counted after 72 h; FIG. 1
Experimental: PLX-sensitve and resistant cutaneous melanoma cells, seeded at 150,000 cells/well in 6-well dishes, were treated with increasing concentrations of AM23 or AM5 in presence or absence of PLX ([…]). Cells were manually counted after 72 h.
PLX-sensitve and resistant cutaneous melanoma cells were seeded at 150,000 cells/well in 6-well dishes. They were treated with increasing concentrations of AM23 or AM5 in presence or absence of PLX ([…]). Cells were manually counted after 72 h.

[6] = tested on: Uveal melanoma cells (OMM1.3, MM28, MP46, MP65); test: Cell survival assay (PrestoBlue), 2D-cultures; type: cell-based, human; details: increasing concentrations, PrestoBlue after 96 h / 72 h
Experimental: Uveal melanoma cells (OMM1.3, MM28, MP46, MP65) were seeded at 5,000 cells/well in a 96-well plate and treated with increasing concentrations of AM23, salinomycin or staurosporine as positive control as indicated on the figure. The condition “milieu RPMI” represents medium without cells. After 96 h of incubation, cells were incubated with PrestoBlue reagent according to manufacture instructions. The absorbance per well was measured with a microplate reader. The data were then analyzed using excel.
Uveal melanoma cells were seeded at 5,000 cells/well in a 96-well plate and treated with salinomycin or ironomycin as well as a positive control (staurosporin, 500 nM). After 72 h of incubation, cells were treated with PrestoBlue reagent according to manufacture instructions (Thermofisher). The absorbance per well was measured with a microplate reader. The data were then analyzed using excel software.
Uveal melanoma cells are known to hardly enter into apoptosis in response to treatments. Thus, we investigated the effects of salinomycin (Sal) and its derivate called ironomycin (AM23) that have been shown, in different cancer cells, to trigger ferroptosis, a type of cell death based on accumulation of iron into lysosomes and subsequent lysosomal membrane permeabilization. We treated a panel of uveal melanoma cells, i.e the human metastatic OMM1.3 (BAP1+) and MM28 (BAP1+) cells, and the human primary MP46 (BAP1−) and MP65 (BAP1−) cells, with Sal or its derivate AM23 to determine if these drugs can represent potential therapeutic options.

[7] = tested on: Primary (MP46) or metastatic (OMM1, OMM2.5, OMM1.3) uveal melanoma cells; test: PrestoBlue proliferation/survival assay (FIG. 7); type: cell-based, human; details: MP46, OMM1, OMM2.5, OMM1.3, increasing concentrations, 72 h
Experimental: FIG. 7: Primary (MP46) or metastatic (OMM1, OMM2.5, OMM1.3) uveal melanoma cells were seeded at 3000 cells/well in a 96 well plate and treated with increasing concentrations of salinomycin, AM23 or AM5. After 72 h of incubation, cells were treated with PrestoBlue reagent according to manufacture instructions. The absorbance per well was measured with a microplate reader. The data were then analyzed using Prism8. Histograms bars represent the average of three replicates #standard error of the mean (s.e.m).

Row | SMILES | Fe (ii) / iron accumulation in lysosomes (RhoNox-M fluorescence) [1] | melanosphere formation / cell survival in 3D-cultures [2] | ability of uveal melanoma cells to form colonies [3] | ferritin expression [4] | resensitization of PLX-resistant cells to PLX effects (cell count) [5] | proliferation/survival of uveal melanoma cells in 2D-cultures [6] | uveal melanoma cell proliferation/survival (FIG. 7) [7] | Fe (ii) / iron accumulation in lysosomes (RhoNox-M fluorescence) ([1]; listed as Sal) | proliferation/survival of uveal melanoma cells in 2D-cultures ([6]; listed as Sal)
1 | C#CCN[C@@H]1C=C[C@]2(O[C@H]([C@@H](CC)C(=O)[C@@H](C)[C@@H](O)[C@H](C)[C@@H]3O[C@@H]([C@@H](CC)C(=O)O)CC[C@@H]3C)[C@@H](C)C[C@H]2C)O[C@@]12CC[C@@](C)([C@H]1CC[C@](O)(CC)[C@H](C)O1)O2 [AM23, (2R)-2-[(2R,5S,6R)-6-{(2S,3S,4S,6R)-6-[(2S,5S,7R,9S,10S,12R,15R)-2-[(2R,5R,6S)-5-Ethyl-5-hydroxy-6-methyltetrahydro-2H-pyran-2-yl]-2, 10,12-trimethyl-15-(2-propyn-1-ylamino)-1,6,8-trioxadispiro[4.1.5.3]pentadec-13-en-9-yl]-3-hydroxy-4-methyl-5-oxo-2-octanyl}-5-methyltetrahydro-2H-pyran-2-yl]butanoic acid] | induces Fe (ii) in lysosomes; also recorded: exhibited fluorescent RhoNox-M-positive vesicles | prevents melanosphere formation; also recorded: almost complete disappearance of melanospheres | strong reduction | strongly reduced | resensitizes PLX-resistant metastatic cutaneous melanoma cells to PLX effects | induces uveal melanoma cell death; also recorded: reduced proliferation/survival | – | – | –
2 | C#CCN[C@@H]1C=C[C@]2(O[C@H]([C@@H](CC)C(=O)[C@@H](C)[C@@H](O)[C@H](C)C3O[C@@H](C(CC)C(=O)O)CC[C@@H]3C)[C@@H](C)C[C@H]2C)O[C@@]12CC[C@@](C)([C@H]1CC[C@](O)(CC)[C@H](C)O1)O2 (stereo partly shown) [AM5] | – | – | – | – | – | – | decreases uveal melanoma cell proliferation/survival, yet with a little bit lower efficacy than AM23 | – | –
3 | CC[C@@H](C(=O)O)C1CC[C@H](C)[C@H]([C@@H](C)[C@H](O)[C@H](C)C(=O)[C@H](CC)[C@H]2OC3(C=C[C@@H](O)C4(CC[C@@](C)([C@H]5CC[C@](O)(CC)[C@H](C)O5)O4)O3)[C@H](C)C[C@@H]2C)O1 (stereo in doubt) [Salinomycin, (2R)-2-[(5S,6R)-6-[(1S,2S,3S,5R)-5-[(2S,5R,7S,9S,10S, 12R, 15R)-2-[(2R,5R,6S)-5-ethyl-5-hydroxy-6-methyl-2-tetrahydropyranyl]-15-hydroxy-2,10,12-trimethyl-1,6,8-trioxadispiro[4.1.57.35]pentadec-13-en-9-yl]-2-hydroxy-1,3-dimethyl-4-oxoheptyl]-5-methyl-2-tetrahydropyranyl]butanoic acid, reference compound] | induces Fe (ii) in lysosomes | – | strong reduction | strongly reduced | – | induces uveal melanoma cell death | – | exhibited fluorescent RhoNox-M-positive vesicles | reduced proliferation/survival
